The values that follow come from ChEMBL document CHEMBL5608211, “Antibody-drug conjugates for targeted cancer therapy: Recent advances in potential payloads” (Eur J Med Chem, 2024).

One data set concerns CCRF-CEM. Description: Cytotoxicity against human CCRF-CEM cells. Format: functional, cell-based.
Data set [1] is described as follows: Inhibition of RNA polymerase II phosphorylation in human HeLa cells by Western blot analysis. It is filed as cell-based.
Another data set relates to BT-474. Description: Antiproliferative activity against human BT-474 cells assessed as inhibition of cell growth incubated for 4 days by WST-8 assay. Format: functional, cell-based. Conditions: BT-474, 96 h. In general terms: Formazan colour is commonly taken as a measure of viable cells.
The subject of another data set is KARPAS-299. Description: Cytotoxicity against human KARPAS-299 cells incubated for 96 hrs by Alamar blue assay. It is filed as functional, cell-based. To be noted: KARPAS-299, 96 h. Background: The colour change of resazurin is a common sign of viable cells or microbes.
The subject of the next data set is MOLM-13. The data set is described as follows: Growth inhibition of human MOLM-13 cells incubated for 5 days by PrestoBlue reagent assay. To be noted: MOLM-13, 120 h, time 5 day. It is filed as functional.
Data set [2] concerns HT-29. Description: Antiproliferative activity against human HT-29 cells assessed as inhibition of cell growth incubated for 48 to 96 hrs by MTT assay. It is filed as functional, cell-based.
Data set [3] in a line: Apparent permeability across basolateral to apical side in human Caco-2 cells incubated for 2 hrs by HPLC-MS analysis. It is filed as ADME, cell-based.
Data set [4] relates to A2780. The data set is described as follows: Cytotoxicity against human A2780 cells. Format: functional, cell-based.
Data set [5] deals with HT-29. Description: Antiproliferative activity against human HT-29 cells assessed as inhibition of cell growth incubated for 72 hrs by coulter counter method. It is filed as functional, cell-based. Conditions: HT-29, 72 h.
The subject of data set [6] is H3396. Description: Cytotoxicity against human H3396 cells incubated for 96 hrs by resazurin dye based fluorescence spectrometric assay. Conditions: H3396, 96 h. Format: functional, cell-based.
In a further data set the test system is HepG2. The data set is described as follows: Cytotoxicity against human HepG2 cells assessed as inhibition of cell growth incubated for 72 hrs by fluorometric assay. It is filed as functional, cell-based. Conditions: HepG2, 72 h.
The target in the next data set is Tubulin. The data set is described as follows: Displacement of fluorescent Maytansine probe from tubulin (unknown origin) assessed as dissociation constant by competitive binding based fluorescence anisotropy. Format: protein-complex assay, Homo sapiens. In general terms: Fluorescence polarisation rises when a labelled molecule tumbles more slowly, as on binding a larger partner.

The subject of data set [7] is A2780. Description: Cytotoxicity against human A2780 cells assessed as inhibition of cell growth incubated for 72 hrs by MTT assay. Format: functional, cell-based. Conditions: A2780, 72 h.
Data set [8] has as its system H3396. Description: Cytotoxicity against human H3396 cells assessed as inhibition of cell growth incubated for 96 hrs by Alamar blue assay. Conditions: H3396, 96 h. It is filed as functional, cell-based.
The subject of data set [9] is HT-29. The data set is described as follows: Antiproliferative activity against human HT-29 cells assessed as inhibition of cell growth incubated for 96 hrs by SRB assay. Conditions: HT-29, 96 h. It is filed as functional, cell-based.
The next data set has as its system SK-BR-3. The data set is described as follows: Cytotoxicity against human SK-BR-3 cells incubated for 4 to 7 days hrs by CellTiter-Glo luminescent assay. It is filed as functional, cell-based.

Molecules are shown by their SMILES. Starred links: 1 amine or outer side, 2 acyl side, 3 side chain; linkers in the order of their positions; H or OH if unused. Positions of bridges follow the written chain, without caps; N, C: chain ends. Non-standard residues stand in square brackets, D forms with d. Residues, ends and D or L forms follow the SMILES beside them. *: point of attachment. X7 = C[C@H]([C@H](N[*:3])C(=O)C[C@@H](Cc1c([*:2])[nH]c2cc(O)ccc12)C(=O)[*:1])[C@@H](O)CO; Dolaproine = CO[C@@H]([C@@H]1CCCN1)[C@@H](C)C(=O)O; Dil = CC[C@H](C)[C@H](NC)[C@@H](CC(=O)O)OC; Pro(4R-NH2) = N[C@H]1CN[C@H](C(=O)O)C1; X9 = c1ccc(C[C@H](N*)c2nn[nH]n2)cc1; X6 = C[C@@H](N*)[C@@H](O)c1ccccc1; NMeV = CN[C@H](C(=O)O)C(C)C

In the case of `COc1ccc(C[C@H]2NC(=O)/C=C/C[C@@H]([C@H](C)[C@@H](O)[C@@H](Cl)c3ccccc3)OC(=O)[C@H](CC(C)C)OC(=O)C(C)(C)CNC2=O)cc1Cl`, in the data set on CCRF-CEM, the midpoint of inhibition, the IC50, lay at 0.027 nM. For `CC[C@H](C)[C@@H]1NC(=O)CNC(=O)[C@H]2CC(=O)[C@H]([C@@H](C)[C@@H](O)CO)NC(=O)[C@@H]3C[C@@H](N)CN3C(=O)[C@H](CC(N)=O)NC(=O)[C@H](CSc3[nH]c4cc(O)ccc4c3C2)NC(=O)CNC1=O` (GIGCN[Pro(4R-NH2)]; linker N-4-C via X7), the IC50 in [1] came out at 550 nM.

Turning to `CC[C@H](C)[C@@H]([C@@H](CC(=O)N1C[C@@H](N)C[C@H]1[C@H](OC)[C@@H](C)C(=O)NCCc1c(F)cccc1F)OC)N(C)C(=O)[C@@H](NC(=O)[C@H](C(C)C)N(C)C)C(C)C`, the IC50 with BT-474 is < 0.4 nM.

For the compound `CC[C@H](C)[C@@H]([C@@H](CC(=O)N1CCC[C@H]1[C@H](OC)[C@@H](C)C(=O)N[C@H](Cc1ccccc1)C(=O)OC)OC)N(C)C(=O)[C@@H](NC(=O)c1ccc(N)cc1)C(C)C`, the IC50 in the data set with KARPAS-299 was 0.12 nM. Regarding `CC[C@H](C)[C@@H]([C@@H](CC(=O)N1C[C@@H](N)C[C@H]1[C@H](OC)[C@@H](C)C(=O)N[C@@H](Cc1ccccc1)C(=O)OC)OC)N(C)C(=O)[C@@H](NC(=O)[C@H](C(C)C)N(C)C)[C@H](C)N=[N+]=[N-]`, growth with MOLM-13 was halved (GI50) at 0.057 nM. For the compound `CC[C@H](C)[C@@H]([C@@H](CC(=O)N1CCC[C@H]1[C@H](OC)[C@@H](C)C(=O)N[C@H](Cc1ccccc1)c1nnc(-c2ccccc2)o1)OC)N(C)C(=O)[C@@H](NC(=O)[C@H](C(C)C)N(C)CCCC(=O)O)C(C)C`, the IC50 in the data set on HT-29 [2] turned out to be 0.1 nM. Moreover, the Papp B→A at 2 h in data set [3] worked out at 4.5 ×10⁻⁶ cm/s. Compound `CC(=O)N[C@@H](C)c1ccc(NC(=O)[C@H]2C[C@@H]2c2cccnc2)cc1` had an IC50 in the data set with A2780 [4] of 5 nM. As to `CC[C@H](C)[C@H](NC(=O)[C@H]1CCCCN1C)C(=O)N(CC1CC1)[C@H](C[C@@H](OC(C)=O)c1nc(C(=O)N[C@@H](Cc2ccccc2)C[C@H](C)C(=O)O)cs1)C(C)C`, the IC50 in the data set with HT-29 [5] is 0.055 nM. In the data set with H3396 [6], `CC[C@H](C)[C@@H]([C@@H](CC(=O)N1CCC[C@H]1[C@H](OC)[C@@H](C)C(=O)N[C@@H](Cc1ccccc1)c1nn[nH]n1)OC)N(C)C(=O)[C@@H](NC(=O)[C@@H](NC)C(C)C)C(C)C` (H-[NMeV]V[Dil][Dolaproine]-X9) registered an IC50 of 6 nM. As to `CC[C@H](C)[C@@H]([C@@H](CC(=O)N1C[C@@H](NC(=O)OC(C)(C)C)C[C@H]1[C@H](OC)[C@@H](C)C(=O)NCCc1c(F)cccc1F)OC)N(C)C(=O)[C@@H](NC(=O)[C@H](C(C)C)N(C)C)C(C)C`, the IC50 in the data set on HepG2 came to 0.13 nM. Regarding `C#CCCCCC(=O)O[C@H]1CC(=O)N(C)c2cc(cc(OC)c2Cl)C/C(C)=C/C=C/[C@@H](OC)[C@@]2(O)C[C@H](OC(=O)N2)[C@@H](C)[C@@H]2O[C@]12C`, the Kd on Tubulin was found to be 20 nM. For the same compound, the IC50 with A2780 [7] was determined as 0.033 nM. For `COc1cc2cc(c1Cl)N(C)C(=O)C[C@H](OC(C)=O)[C@@]1(C)O[C@H]1[C@H](C)[C@@H]1C[C@@](O)(NC(=O)O1)[C@H](OC)/C=C/C=C(\C)C2` the same measures were 11 nM and 0.25 nM. Take `CC[C@H](C)[C@@H]([C@@H](CC(=O)N1CCC[C@H]1[C@H](OC)[C@@H](C)C(=O)N[C@H](C)[C@@H](O)c1ccccc1)OC)N(C)C(=O)[C@@H](NC(=O)[C@@H](NC)C(C)C)C(C)C` (H-[NMeV]V[Dil][Dolaproine]-X6): the half-maximal inhibitory concentration (IC50) in the data set with H3396 [8] was found to be 0.1 nM. On to `COc1cc2cc(c1Cl)N(C)C(=O)C[C@H](OC(=O)[C@H](C)N(C)C(C)=O)[C@]1(C)O[C@H]1[C@H](C)[C@@H]1C[C@@](O)(NC(=O)O1)[C@H](OC)/C=C/C=C(\C)C2` [MAYTANSINE], for which, at Tubulin, the Kd is 14 nM.

On to `CC[C@H](C)[C@@H]([C@@H](CC(=O)N1CCC[C@H]1[C@H](OC)[C@@H](C)C(=O)N[C@@H](Cc1ccccc1)c1nccs1)OC)N(C)C(=O)[C@@H](NC(=O)[C@H](C(C)C)N(C)C)C(C)C` [DOLASTATIN-10], for which the IC50 in the data set on HT-29 [9] came out at 0.018 nM. In turn, `CCCO[C@H](C[C@H](C(C)C)N(C)C(=O)[C@@H](NC(=O)[C@H]1CCCCN1C)C(C)C)c1nc(C(=O)N[C@@H](Cc2ccc(N)cc2)C[C@H](C)C(=O)O)c(CCOCc2ccccc2)s1` came in with an IC50 in the data set on SK-BR-3 of 0.04 nM.

In general, IC50 refers to the midpoint of a concentration-inhibition curve. As usually defined, the GI50 is the concentration that inhibits growth by half. As a reminder, the Papp B→A is the apparent permeability from the basolateral to the apical side of a cell layer. As usually defined, the Kd is the equilibrium constant for the complex coming apart.
